Source: the NIST ThermoML archive (doi:10.1016/j.jct.2009.08.002)
Numbers after ± are expanded uncertainties.

Assay: molar heat capacity at constant pressure; xn = mol fraction of the nth substance listed
Conditions: Liquid, Large sample (1 g) DSC

CCCCCCCC[n+]1ccn(C)c1.F[B-](F)(F)F [1-methyl-3-octylimidazolium tetrafluoroborate] + CC#N
molar heat capacity at constant pressure [J/K/mol]
Conditions	x1 = 0.0359	x1 = 0.1135	x1 = 0.1694	x1 = 0.2341	x1 = 0.3023	x1 = 0.4285	x1 = 0.5437	x1 = 0.6829	x1 = 0.8425	x1 = 1
283.15 K	103.7 ± 1.6	133.5 ± 2.1	155.3 ± 2.4	181 ± 2.8	208.3 ± 3.2	259.1 ± 4	305.8 ± 4.7	362.2 ± 5.6	426.5 ± 6.6	489.8 ± 7.6
288.15 K	104 ± 1.6	133.9 ± 2.1	155.9 ± 2.4	181.7 ± 2.8	209.1 ± 3.2	260.4 ± 4	307.3 ± 4.8	364.1 ± 5.6	428.9 ± 6.6	492.6 ± 7.6
293.15 K	104.4 ± 1.6	134.4 ± 2.1	156.5 ± 2.4	182.4 ± 2.8	210 ± 3.3	261.7 ± 4.1	308.9 ± 4.8	366 ± 5.7	431.3 ± 6.7	495.4 ± 7.7
298.15 K	104.8 ± 1.6	135 ± 2.1	157.1 ± 2.4	183.2 ± 2.8	210.9 ± 3.3	263 ± 4.1	310.5 ± 4.8	368 ± 5.7	433.7 ± 6.7	498.3 ± 7.7
303.15 K	105.2 ± 1.6	135.5 ± 2.1	157.8 ± 2.5	184 ± 2.9	211.9 ± 3.3	264.3 ± 4.1	312.2 ± 4.8	370.1 ± 5.7	436.2 ± 6.8	501.2 ± 7.8
308.15 K	105.6 ± 1.6	136.1 ± 2.1	158.5 ± 2.5	184.9 ± 2.9	212.9 ± 3.3	265.7 ± 4.1	313.9 ± 4.9	372.2 ± 5.8	438.7 ± 6.8	504.1 ± 7.8
313.15 K	106.1 ± 1.7	136.7 ± 2.1	159.2 ± 2.5	185.7 ± 2.9	213.9 ± 3.3	267.1 ± 4.1	315.7 ± 4.9	374.4 ± 5.8	441.3 ± 6.8	507.1 ± 7.9
318.15 K	106.5 ± 1.7	137.4 ± 2.1	159.9 ± 2.5	186.6 ± 2.9	215.1 ± 3.3	268.5 ± 4.2	317.5 ± 4.9	376.7 ± 5.8	443.9 ± 6.9	510.2 ± 7.9
323.15 K	107 ± 1.7	138 ± 2.1	160.7 ± 2.5	187.5 ± 2.9	216.2 ± 3.4	269.9 ± 4.2	319.3 ± 4.9	379 ± 5.9	446.6 ± 6.9	513.3 ± 8

CCCCCCn1cc[n+](C)c1.F[B-](F)(F)F [1-hexyl-3-methylimidazolium tetrafluoroborate] + CC#N
molar heat capacity at constant pressure [J/K/mol]
Conditions	283.15 K	288.15 K	293.15 K	298.15 K	303.15 K	308.15 K	313.15 K	318.15 K	323.15 K
x1 = 0.0648	110.9 ± 1.7	111.2 ± 1.7	111.6 ± 1.7	112.1 ± 1.7	112.5 ± 1.7	113 ± 1.8	113.5 ± 1.8	114 ± 1.8	114.6 ± 1.8
x1 = 0.1342	133.5 ± 2.1	134 ± 2.1	134.5 ± 2.1	135 ± 2.1	135.6 ± 2.1	136.2 ± 2.1	136.8 ± 2.1	137.4 ± 2.1	138.1 ± 2.1
x1 = 0.2127	159.4 ± 2.5	160 ± 2.5	160.7 ± 2.5	161.4 ± 2.5	162.1 ± 2.5	162.9 ± 2.5	163.7 ± 2.5	164.5 ± 2.6	165.3 ± 2.6
x1 = 0.2732	179.6 ± 2.8	180.3 ± 2.8	181.1 ± 2.8	181.8 ± 2.8	182.7 ± 2.8	183.6 ± 2.8	184.5 ± 2.9	185.5 ± 2.9	186.6 ± 2.9
x1 = 0.3828	216.5 ± 3.4	217.5 ± 3.4	218.5 ± 3.4	219.6 ± 3.4	220.7 ± 3.4	221.8 ± 3.4	223 ± 3.5	224.2 ± 3.5	225.5 ± 3.5
x1 = 0.5367	268.5 ± 4.2	269.8 ± 4.2	271.2 ± 4.2	272.6 ± 4.2	274 ± 4.2	275.6 ± 4.3	277.2 ± 4.3	278.8 ± 4.3	280.5 ± 4.3
x1 = 0.7064	326.1 ± 5.1	327.7 ± 5.1	329.4 ± 5.1	331.2 ± 5.1	333.1 ± 5.2	335.1 ± 5.2	337.1 ± 5.2	339.2 ± 5.3	341.4 ± 5.3
x1 = 0.8344	369.2 ± 5.7	371.2 ± 5.8	373.2 ± 5.8	375.3 ± 5.8	377.4 ± 5.8	379.7 ± 5.9	382 ± 5.9	384.5 ± 6	387 ± 6
x1 = 1	425 ± 6.6	427.2 ± 6.6	429.6 ± 6.7	432 ± 6.7	434.6 ± 6.7	437.2 ± 6.8	440 ± 6.8	442.9 ± 6.9	445.8 ± 6.9
